Measured values: ChEMBL document CHEMBL1136348, “Advances toward new antidepressants beyond SSRIs: 1-aryloxy-3-piperidinylpropan-2-ols with dual 5-HT1A receptor antagonism/SSRI activities. Part 3” (Bioorg Med Chem Lett, 2003)

How the values were obtained:
[1] = target: Sodium-dependent serotonin transporter (Rattus norvegicus, UniProt P31652); assay: Affinity at the 5-HT reuptake site labeled with [3H]paroxetine using rat frontal cortex membranes; assay type: tissue-based, Membrane
[2] = target: T1, 5-hydroxytryptamine receptor 1A (Homo sapiens, UniProt P08908); assay: Binding affinity towards 5-hydroxytryptamine 1A receptor in human using [3H]8-OH-DPAT as radioligand
T1 sequence (P08908 whole entry): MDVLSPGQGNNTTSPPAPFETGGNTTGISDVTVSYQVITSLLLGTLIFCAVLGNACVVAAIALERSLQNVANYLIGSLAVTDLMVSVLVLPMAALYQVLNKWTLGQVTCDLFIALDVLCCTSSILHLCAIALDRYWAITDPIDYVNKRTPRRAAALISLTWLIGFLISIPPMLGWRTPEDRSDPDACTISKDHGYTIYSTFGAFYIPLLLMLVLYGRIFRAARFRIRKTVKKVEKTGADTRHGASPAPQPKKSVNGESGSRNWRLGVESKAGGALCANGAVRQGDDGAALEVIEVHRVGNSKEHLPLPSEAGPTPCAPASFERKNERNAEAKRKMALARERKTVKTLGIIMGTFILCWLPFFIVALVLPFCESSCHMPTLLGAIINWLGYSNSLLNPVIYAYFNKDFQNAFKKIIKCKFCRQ

[3] = target: T2, 5-hydroxytryptamine receptor 1A (Homo sapiens) (UniProt P08908); assay: Maximal stimulation of expressed human 5-hydroxytryptamine 1A receptor assayed by [35S]GTP-gamma-S, binding; assay type: functional
T2 sequence (whole entry): T1 sequence (P08908 whole entry)

Sodium-dependent serotonin transporter, sequence (P31652 whole entry): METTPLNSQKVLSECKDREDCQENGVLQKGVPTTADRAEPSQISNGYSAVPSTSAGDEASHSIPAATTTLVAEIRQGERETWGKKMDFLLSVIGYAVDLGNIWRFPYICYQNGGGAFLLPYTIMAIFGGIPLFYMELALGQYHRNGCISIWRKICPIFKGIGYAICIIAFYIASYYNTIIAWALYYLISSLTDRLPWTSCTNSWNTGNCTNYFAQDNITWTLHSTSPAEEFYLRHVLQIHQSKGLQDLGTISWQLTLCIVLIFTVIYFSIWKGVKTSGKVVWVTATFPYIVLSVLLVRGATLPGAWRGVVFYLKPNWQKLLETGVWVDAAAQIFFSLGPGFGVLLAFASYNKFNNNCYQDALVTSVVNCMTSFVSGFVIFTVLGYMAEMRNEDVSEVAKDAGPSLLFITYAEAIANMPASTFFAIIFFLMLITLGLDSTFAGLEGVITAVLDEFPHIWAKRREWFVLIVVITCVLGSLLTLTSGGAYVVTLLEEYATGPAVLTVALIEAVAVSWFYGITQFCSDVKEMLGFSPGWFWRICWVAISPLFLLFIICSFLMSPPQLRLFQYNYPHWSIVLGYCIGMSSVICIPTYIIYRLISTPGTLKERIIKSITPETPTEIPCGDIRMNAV

SMILES	Ki [1]	Ki [2]	Emax [3]
COc1cccc2sc([C@H]3C[C@H]4CC[C@@H](C3)N4C[C@H](O)COc3cccc4[nH]c(C)cc34)cc12	0.45 nM	20.9 nM	7.92%
Cc1cc2c(OC[C@@H](O)CN3CC[C@@H](c4cc5c(C)cccc5s4)C[C@@H]3C)cccc2[nH]1	0.62 nM	10.5 nM	6.32%
Cc1cc2c(OC[C@@H](O)CN3CC[C@@H](c4cc5ccccc5s4)C[C@@H]3C)cccc2[nH]1	0.53 nM	7.11 nM	6.09%
COc1cccc2sc([C@@H]3CCN(C[C@H](O)COc4cccc5oc(C)cc45)[C@@H](C)C3)cc12	38.5 nM	4.06 nM	8.76%
Cc1ccc2cc([C@@H]3CCN(C[C@H](O)COc4cccc5[nH]c(C)cc45)[C@@H](C)C3)sc2c1	1.28 nM	–	–
COc1cccc2sc([C@H]3CCN(C[C@H](O)COc4cccc5[nH]c(C)cc45)[C@H](C)C3)cc12	3.3 nM	28.1 nM	2.38%
COc1cccc2sc([C@@H]3C[C@H]4CC[C@@H](C3)N4C[C@H](O)COc3cccc4[nH]c(C)cc34)cc12	0.69 nM	9.2 nM	2.98%
COc1cccc2sc([C@H]3CCN(C[C@H](O)COc4cccc5oc(C)cc45)[C@H](C)C3)cc12	15.2 nM	26.8 nM	6.49%
Cc1cc2c(OC[C@@H](O)CN3CC[C@@H](c4cc5cc(F)ccc5s4)C[C@@H]3C)cccc2[nH]1	0.24 nM	5.65 nM	9.05%
COc1cccc2sc([C@@H]3CCN(C[C@H](O)COc4cccc5[nH]c(C(N)=O)cc45)[C@H](C)C3)cc12	16.2 nM	12.7 nM	7.21%
COc1cccc2sc([C@@H]3CCN(C[C@H](O)COc4cccc5oc(C)cc45)[C@H](C)C3)cc12	110 nM	4.84 nM	–
COc1cccc2sc(C3CCN(C[C@H](O)COc4cccc5[nH]c(C)cc45)C(C)(C)C3)cc12 (stereo in doubt; 28)	118 nM	9.42 nM	–
Cc1cc2c(OC[C@@H](O)CN3CC[C@H](c4cc5cccc(F)c5s4)C[C@H]3C)cccc2[nH]1	6.06 nM	9.8 nM	6.35%
COc1cccc2sc([C@@H]3CCN(C[C@H](O)COc4cccc5[nH]c(C(N)=O)cc45)[C@@H](C)C3)cc12	0.56 nM	6.36 nM	12.8%
Cc1cc2c(OC[C@@H](O)CN3CC[C@@H](c4cc5cccc(F)c5s4)C[C@H]3C)cccc2[nH]1	34.4 nM	2.12 nM	–
COc1cccc2sc([C@H]3CCN(C[C@H](O)COc4cccc5[nH]c(C(N)=O)cc45)[C@@H](C)C3)cc12	6.61 nM	–	–

SMILES	Ki [1]	Ki [2]	Emax [3]
COc1cccc2sc([C@H]3CCN(C[C@H](O)COc4cccc5[nH]c(C(N)=O)cc45)[C@H](C)C3)cc12	1.22 nM	32 nM	–
COc1cccc2sc([C@H]3C[C@H]4CC[C@@H](C3)N4C[C@H](O)COc3cccc4[nH]ccc34)cc12	0.17 nM	–	–
COc1cccc2sc([C@H]3CCN(C[C@H](O)COc4cccc5oc(C)cc45)[C@@H](C)C3)cc12	76.1 nM	–	–
Cc1cc2c(OC[C@@H](O)CN3CC[C@@H](c4cc5ccc(F)cc5s4)C[C@@H]3C)cccc2[nH]1	0.39 nM	12.3 nM	7.26%
Cc1cc2c(OC[C@@H](O)CN3CC[C@@H](c4cc5cc(Cl)ccc5s4)C[C@@H]3C)cccc2[nH]1	1.02 nM	15.7 nM	8.42%
COc1cccc2sc([C@@H]3CCN(C[C@H](O)COc4cccc5[nH]c(C)cc45)[C@H](C)C3)cc12	29 nM	20.2 nM	1.8%
COc1cccc2sc([C@@H]3C[C@H]4CC[C@@H](C3)N4C[C@H](O)COc3cccc4[nH]ccc34)cc12	–	–	7.22%
COc1ccc2cc([C@@H]3CCN(C[C@H](O)COc4cccc5[nH]c(C)cc45)[C@@H](C)C3)sc2c1	2.37 nM	13.5 nM	3.21%
Cc1cc(C)c2cc([C@@H]3CCN(C[C@H](O)COc4cccc5[nH]c(C)cc45)[C@@H](C)C3)sc2c1	1.99 nM	105 nM	–
Cc1cc2c(OC[C@@H](O)CN3CC[C@@H](c4cc5cccc(F)c5s4)C[C@@H]3C)cccc2[nH]1	1.29 nM	1.34 nM	4.09%
Cc1cc2c(OC[C@@H](O)CN3CC[C@H](c4cc5cccc(F)c5s4)C[C@@H]3C)cccc2[nH]1	47.5 nM	19.4 nM	–
Cc1cc2c(OC[C@@H](O)CN3CC[C@@H](c4cc5c(F)cccc5s4)C[C@@H]3C)cccc2[nH]1	0.92 nM	0.75 nM	3.15%
COc1cccc2sc([C@@H]3C[C@H]4CC[C@@H](C3)N4C[C@H](O)COc3cccc4[nH]c(C(N)=O)cc34)cc12	0.37 nM	12.4 nM	11.3%
COc1cccc2sc([C@@H]3CCN(C[C@H](O)COc4cccc5[nH]c(C)cc45)[C@@H](C)C3)cc12	0.86 nM	14.3 nM	4.76%
COc1cccc2sc(C3CCN(C[C@H](O)COc4cccc5[nH]c(C)cc45)C(C)(C)C3)cc12 (stereo in doubt; 29)	20.5 nM	42.8 nM	–
COc1cc(OC)c2cc([C@@H]3CCN(C[C@H](O)COc4cccc5[nH]c(C)cc45)[C@@H](C)C3)sc2c1	2.79 nM	23.1 nM	7.62%
